Laboratory results published in the OligoGym collection.
Several values for one entry are separate records, joined by “and”; a condition that tells them apart may be missing. Identical values can stand only once. After the bases stand the sugars from the 5' end (letter, count) and the backbone: PS all phosphorothioate, else s phosphorothioate and o phosphodiester by linkage. HELM strings list units from the 5' end as sugar, base in round brackets, then linkage (d deoxyribose, r ribose, m 2'-O-methyl, p phosphodiester). Methylation of C is not given here. [moe] = 2'-O-(2-methoxyethyl) (MOE); [cEt] = constrained ethyl (cEt); [sp] = phosphorothioate linkage; e = 2'-O-(2-methoxyethyl) (MOE); k = constrained ethyl (cEt); d = 2'-deoxy (DNA)

How the values were obtained:
IRF5 = conditions: ASO
HBV = conditions: ASO

Row | Substance | target mRNA inhibition (IRF5; KARPAS-229, 4 µM) | target mRNA inhibition (HBV; HepG2, 0.07 µM) | other results
1 | AAGATGGTGTTATCTC (sugars k3 d10 k3, PS) | 0% |  | 
2 | AAGGGCACAGACGCAGG (sugars k3 d10 k3 d1, PS) | 0% |  | 
3 | AAGGGCACAGCGCAGG (sugars k2 d11 k3, PS) | 0% and 2% |  | 
4 | AAGGGCACAGCGCAGG (sugars kddddddddddkekek, PS) | 0% |  | 
5 | AAGGGCACAGCGCAGG (sugars kkdddddddddkekek, PS) | 0% |  | 
6 | ACATCTCCACATCAGT (sugars k2 d8 e4 k2, PS) | 24% |  | 
7 | ACATCTCCACATCAGT (sugars kkdddddddddkekek, PS) | 16% |  | 
8 | ACCACTGTGTACCCCA (sugars k3 d9 k3 e1, PS) | 47% |  | 
9 | ACCACTGTGTACCCCA (sugars kddddddddddkekek, PS) | 43% |  | 
10 | ACCATTCTATGCCTTT (sugars k3 d9 k3 e1, PS) | 59% and 61% |  | target mRNA inhibition (IRF5; KARPAS-229, 0.44444 µM): 33%; target mRNA inhibition (IRF5; KARPAS-229, 1.33333 µM): 56%; target mRNA inhibition (IRF5; KARPAS-229, 12 µM): 75%
11 | ACCATTCTATGCCTTT (sugars kekdddddddddeekk, PS) | 51% |  | 
12 | ACCATTCTATGCCTTT (sugars kkkddddddddkdkdk, PS) | 11% |  | 
13 | ACTGACACAGGCGGAT (sugars k3 d9 k3 e1, PS) | 0% |  | 
14 | ACTGACACAGGCGGAT (sugars kkkddddddddkekek, PS) | 0% |  | 
15 | AGATGGTGTTATCTCC (sugars k3 d10 k3, PS) | 0% |  | 
16 | AGATGGTGTTATCTCC (sugars kkddddddddddkeke, PS) | 0% |  | 
17 | AGATGGTGTTATCTCC (sugars kkkdddddddddkeke, PS) | 8% |  | 
18 | AGATGGTGTTATCTCC (sugars kkkddddddddkdkdk, PS) | 0% |  | 
19 | AGCTTGGTCTTGACCT (sugars k3 d9 k3 e1, PS) | 10% |  | 
20 | AGCTTGGTCTTGACCT (sugars kkkdddddddddkeke, PS) | 26% |  | 
21 | AGCTTTCTTGTCTAGT (sugars k3 d10 k3, PS) | 20% |  | 
22 | AGGAAGTGAGTCTCAA (sugars kdddddddddkekeke, PS) | 23% |  | 
23 | AGGAGTGAGACGAGCA (sugars kkddddddddddkeke, PS) | 28% |  | 
24 | AGGTTCTTGGACTCTC (sugars k3 d10 k3, PS) | 0% |  | 
25 | AGGTTCTTGGACTCTC (sugars kdddddddddkekeke, PS) | 0% |  | 
26 | AGGTTCTTGGACTCTC (sugars kkdddddddddkdkdk, PS) | 36% |  | 

Row | Substance | target mRNA inhibition (IRF5; KARPAS-229, 4 µM) | target mRNA inhibition (HBV; HepG2, 0.07 µM) | other results
27 | AGGTTCTTGGACTCTC (sugars kkkddddddddkekek, PS) | 8% |  | 
28 | AGTAGGACGAGTTATG (sugars k3 d10 k3, PS) | 0% |  | 
29 | AGTGAGACGAGCAAAG (sugars k3 d10 k3, PS) | 16% |  | 
30 | ATACCCAATGCAACAT (sugars k3 d10 k3, PS) | 1% |  | 
31 | ATCTGATATGATACCT (sugars k3 d10 k3, PS) | 36% |  | 
32 | ATGAGTAATAGGAGTG (sugars k3 d10 k3, PS) | 56% and 52% |  | target mRNA inhibition (IRF5; KARPAS-229, 0.44444 µM): 15%; target mRNA inhibition (IRF5; KARPAS-229, 1.33333 µM): 46%; target mRNA inhibition (IRF5; KARPAS-229, 12 µM): 70%
33 | RNA1{[moe](T)[sp].[moe](C)[sp].[moe](C)[sp].d(A)[sp].d(C)[sp].d(C)[sp].d(A)[sp].d(C)[sp].d(G)[sp].d(A)[sp].d(G)[sp].d(T)[sp].d(C)[sp].[cEt](T)[sp].[cEt](A)[sp].[cEt](G)}$$$$V2.0 |  | 42% and 67% | 
34 | RNA1{[moe](T)[sp].[moe](C)[sp].[moe](C)[sp].d(G)[sp].d(C)[sp].d(A)[sp].d(G)[sp].d(T)[sp].d(A)[sp].d(T)[sp].d(G)[sp].d(G)[sp].[moe](A)[sp].[moe](T)[sp].[moe](C)[sp].[moe](G)[sp].[moe](G)}$$$$V2.0 |  | 68% and 58% | 
35 | RNA1{[moe](T)[sp].[moe](C)[sp].[moe](C)[sp].d(G)[sp].d(C)[sp].d(A)[sp].d(G)[sp].d(T)[sp].d(A)[sp].d(T)[sp].d(G)[sp].d(G)[sp].d(A)[sp].[cEt](T)[sp].[cEt](C)[sp].[cEt](G)}$$$$V2.0 |  | 73% and 53% | 
36 | RNA1{[moe](T)[sp].[moe](G)[sp].[moe](A)[sp].[cEt](G)[sp].[cEt](G)[sp].d(C)[sp].d(A)[sp].d(T)[sp].d(A)[sp].d(G)[sp].d(C)[sp].d(A)[sp].[cEt](G)[sp].[cEt](C)[sp].[moe](A)[sp].[moe](G)[sp].[moe](G)}$$$$V2.0 |  |  | target mRNA inhibition (HBV; HepG2, 0.009375 µM): 23%; target mRNA inhibition (HBV; HepG2, 0.01875 µM): 4%; target mRNA inhibition (HBV; HepG2, 0.0375 µM): 29%; target mRNA inhibition (HBV; HepG2, 0.075 µM): 31%; target mRNA inhibition (HBV; HepG2, 0.15 µM): 36%; target mRNA inhibition (HBV; HepG2, 0.3 µM): 56%
37 | RNA1{[moe](T)[sp].[moe](G)[sp].[moe](A)[sp].[cEt](G)[sp].d(G)[sp].d(C)[sp].d(A)[sp].d(T)[sp].d(A)[sp].d(G)[sp].d(C)[sp].d(A)[sp].d(G)[sp].[cEt](C)[sp].[moe](A)[sp].[moe](G)[sp].[moe](G)}$$$$V2.0 |  |  | target mRNA inhibition (HBV; HepG2, 0.009375 µM): 6%; target mRNA inhibition (HBV; HepG2, 0.01875 µM): 31%; target mRNA inhibition (HBV; HepG2, 0.0375 µM): 42%; target mRNA inhibition (HBV; HepG2, 0.075 µM): 58%; target mRNA inhibition (HBV; HepG2, 0.15 µM): 66%; target mRNA inhibition (HBV; HepG2, 0.3 µM): 82%
38 | RNA1{[moe](T)[sp].[moe](G)[sp].[moe](A)[sp].[moe](A)[sp].[moe](G)[sp].[moe](C)[sp].d(G)[sp].d(A)[sp].d(A)[sp].d(G)[sp].d(T)[sp].d(G)[sp].d(C)[sp].d(A)[sp].d(C)[sp].[moe](A)[sp].[moe](C)}$$$$V2.0 |  | 84% and 64% | 
39 | RNA1{[moe](T)[sp].[moe](G)[sp].[moe](A)[sp].d(A)[sp].d(G)[sp].d(C)[sp].d(G)[sp].d(A)[sp].d(A)[sp].d(G)[sp].d(T)[sp].d(G)[sp].d(C)[sp].[cEt](A)[sp].[cEt](C)[sp].[cEt](A)}$$$$V2.0 |  | 67% and 70% | 
40 | RNA1{[moe](T)[sp].[moe](G)[sp].[moe](A)[sp].d(G)[sp].d(G)[sp].d(C)[sp].d(A)[sp].d(T)[sp].d(A)[sp].d(G)[sp].d(C)[sp].d(A)[sp].[moe](G)[sp].[moe](C)[sp].[moe](A)[sp].[moe](G)[sp].[moe](G)}$$$$V2.0 |  | 70% and 56% | 
41 | RNA1{[moe](T)[sp].[moe](G)[sp].[moe](C)[sp].d(A)[sp].d(G)[sp].d(A)[sp].d(G)[sp].d(G)[sp].d(T)[sp].d(G)[sp].d(A)[sp].d(A)[sp].[moe](G)[sp].[moe](C)[sp].[moe](G)[sp].[moe](A)}$$$$V2.0 |  | 51% and 56% | 
42 | RNA1{[moe](T)[sp].[moe](G)[sp].[moe](G)[sp].[moe](A)[sp].[moe](G)[sp].d(C)[sp].d(C)[sp].d(A)[sp].d(C)[sp].d(C)[sp].d(A)[sp].d(G)[sp].d(C)[sp].d(A)[sp].[moe](G)[sp].[moe](G)}$$$$V2.0 |  | 33% and 32% | 
43 | RNA1{[moe](T)[sp].[moe](G)[sp].d(A)[sp].d(A)[sp].d(G)[sp].d(C)[sp].d(G)[sp].d(A)[sp].d(A)[sp].d(G)[sp].d(T)[sp].[moe](G)[sp].[moe](C)[sp].[moe](A)[sp].[moe](C)[sp].[moe](A)[sp].[moe](C)}$$$$V2.0 |  | 81% and 79% | 
44 | RNA1{[moe](T)[sp].[moe](G)[sp].d(A)[sp].d(G)[sp].d(G)[sp].d(C)[sp].d(A)[sp].d(T)[sp].d(A)[sp].d(G)[sp].d(C)[sp].[moe](A)[sp].[moe](G)[sp].[moe](C)[sp].[moe](A)[sp].[moe](G)}$$$$V2.0 |  | 59% and 52% | 
45 | RNA1{[moe](T)[sp].[moe](T)[sp].[moe](A)[sp].[moe](T)[sp].d(G)[sp].d(C)[sp].d(C)[sp].d(T)[sp].d(A)[sp].d(C)[sp].d(A)[sp].d(G)[sp].d(C)[sp].[moe](C)[sp].[moe](T)[sp].[moe](C)[sp].[moe](C)}$$$$V2.0 |  | 52% and 34% | 
46 | RNA1{[moe](T)[sp].[moe](T)[sp].[moe](A)[sp].[moe](T)[sp].d(G)[sp].d(C)[sp].d(C)[sp].d(T)[sp].d(A)[sp].d(C)[sp].d(A)[sp].d(G)[sp].d(C)[sp].[moe](C)[sp].[moe](T)[sp].[moe](C)}$$$$V2.0 |  | 42% and 46% | 
47 | RNA1{[moe](T)[sp].[moe](T)[sp].[moe](A)[sp].d(T)[sp].d(G)[sp].d(C)[sp].d(C)[sp].d(T)[sp].d(A)[sp].d(C)[sp].d(A)[sp].d(G)[sp].[moe](C)[sp].[moe](C)[sp].[moe](T)[sp].[moe](C)}$$$$V2.0 |  | 51% and 41% | 
48 | RNA1{[moe](T)[sp].[moe](T)[sp].[moe](C)[sp].[moe](C)[sp].[moe](G)[sp].[moe](C)[sp].d(A)[sp].d(G)[sp].d(T)[sp].d(A)[sp].d(T)[sp].d(G)[sp].d(G)[sp].d(A)[sp].d(T)[sp].[moe](C)[sp].[moe](G)}$$$$V2.0 |  | 45% and 53% | 
49 | RNA1{[moe](T)[sp].[moe](T)[sp].[moe](C)[sp].d(C)[sp].d(G)[sp].d(C)[sp].d(A)[sp].d(G)[sp].d(T)[sp].d(A)[sp].d(T)[sp].d(G)[sp].[moe](G)[sp].[moe](A)[sp].[moe](T)[sp].[moe](C)[sp].[moe](G)}$$$$V2.0 |  | 73% and 60% | 
50 | RNA1{[moe](T)[sp].[moe](T)[sp].d(C)[sp].d(C)[sp].d(G)[sp].d(C)[sp].d(A)[sp].d(G)[sp].d(T)[sp].d(A)[sp].d(T)[sp].[moe](G)[sp].[moe](G)[sp].[moe](A)[sp].[moe](T)[sp].[moe](C)}$$$$V2.0 |  | 62% and 50% | 
51 | RNA1{[moe](T)[sp].[moe](T)[sp].d(T)[sp].d(A)[sp].d(T)[sp].d(G)[sp].d(C)[sp].d(C)[sp].d(T)[sp].d(A)[sp].d(C)[sp].[moe](A)[sp].[moe](G)[sp].[moe](C)[sp].[moe](C)[sp].[moe](T)[sp].[moe](C)}$$$$V2.0 |  | 64% and 54% | 
52 | RNA1{d(C)[sp].d(C)[sp].d(A)[sp].d(A)[sp].d(A)[sp].d(G)[sp].d(C)[sp].d(C)[sp].d(A)[sp].d(C)[sp].d(C)[sp].d(C)[sp].d(A)[sp].d(A)[sp].d(G)[sp].d(G)}$$$$V2.0 |  |  | target mRNA inhibition (HBV; HepG2, 0.01875 µM): 4% and 0%; target mRNA inhibition (HBV; HepG2, 0.0375 µM): 0%; target mRNA inhibition (HBV; HepG2, 0.075 µM): 0%; target mRNA inhibition (HBV; HepG2, 0.15 µM): 3% and 0%; target mRNA inhibition (HBV; HepG2, 0.3 µM): 13%
